{"source": "ChEMBL document CHEMBL5465560", "about": "“Selectivity Literature for EUbOPEN Chemogenomic Library” (2024)", "key": {"[1]": {"biological_target": "cAMP-dependent protein kinase catalytic subunit beta (Homo sapiens) (UniProt P22694)", "assay": "Selectivity interaction (LanthaScreen Eu Kinase Binding Assay) EUB0001632a PRKACB", "details": "at 10 µM"}, "[2]": {"biological_target": "Mitogen-activated protein kinase kinase kinase kinase 1 (Homo sapiens) (UniProt Q92918)", "sequence (Q92918 whole entry, looked up)": "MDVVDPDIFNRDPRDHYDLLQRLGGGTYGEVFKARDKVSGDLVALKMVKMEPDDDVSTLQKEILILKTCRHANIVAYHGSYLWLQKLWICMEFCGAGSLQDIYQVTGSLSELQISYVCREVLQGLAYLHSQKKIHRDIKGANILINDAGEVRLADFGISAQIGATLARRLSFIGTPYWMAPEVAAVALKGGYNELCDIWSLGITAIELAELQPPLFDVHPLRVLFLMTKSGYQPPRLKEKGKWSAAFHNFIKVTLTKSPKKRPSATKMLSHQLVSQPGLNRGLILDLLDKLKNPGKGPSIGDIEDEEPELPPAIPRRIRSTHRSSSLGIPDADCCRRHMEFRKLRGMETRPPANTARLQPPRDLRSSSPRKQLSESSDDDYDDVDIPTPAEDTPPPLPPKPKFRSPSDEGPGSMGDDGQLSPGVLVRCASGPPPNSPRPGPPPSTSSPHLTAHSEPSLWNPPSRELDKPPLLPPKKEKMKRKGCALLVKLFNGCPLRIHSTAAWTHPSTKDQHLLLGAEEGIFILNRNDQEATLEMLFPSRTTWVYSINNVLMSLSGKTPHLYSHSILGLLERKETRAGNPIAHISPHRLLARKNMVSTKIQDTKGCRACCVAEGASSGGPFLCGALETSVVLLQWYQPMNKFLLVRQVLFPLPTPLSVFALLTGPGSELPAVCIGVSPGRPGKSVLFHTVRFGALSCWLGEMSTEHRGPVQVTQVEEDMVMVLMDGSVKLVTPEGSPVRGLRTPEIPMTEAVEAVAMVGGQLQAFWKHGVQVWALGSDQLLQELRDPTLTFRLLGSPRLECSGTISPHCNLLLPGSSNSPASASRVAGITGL", "assay": "Selectivity interaction (KinomeScan (DiscoverX)) EUB0000607a MAP4K1", "details": "at 10 µM"}, "[3]": {"biological_target": "T1, Cyclin-dependent kinase-like 5 (Homo sapiens) (UniProt O76039)", "T1 sequence (whole entry)": "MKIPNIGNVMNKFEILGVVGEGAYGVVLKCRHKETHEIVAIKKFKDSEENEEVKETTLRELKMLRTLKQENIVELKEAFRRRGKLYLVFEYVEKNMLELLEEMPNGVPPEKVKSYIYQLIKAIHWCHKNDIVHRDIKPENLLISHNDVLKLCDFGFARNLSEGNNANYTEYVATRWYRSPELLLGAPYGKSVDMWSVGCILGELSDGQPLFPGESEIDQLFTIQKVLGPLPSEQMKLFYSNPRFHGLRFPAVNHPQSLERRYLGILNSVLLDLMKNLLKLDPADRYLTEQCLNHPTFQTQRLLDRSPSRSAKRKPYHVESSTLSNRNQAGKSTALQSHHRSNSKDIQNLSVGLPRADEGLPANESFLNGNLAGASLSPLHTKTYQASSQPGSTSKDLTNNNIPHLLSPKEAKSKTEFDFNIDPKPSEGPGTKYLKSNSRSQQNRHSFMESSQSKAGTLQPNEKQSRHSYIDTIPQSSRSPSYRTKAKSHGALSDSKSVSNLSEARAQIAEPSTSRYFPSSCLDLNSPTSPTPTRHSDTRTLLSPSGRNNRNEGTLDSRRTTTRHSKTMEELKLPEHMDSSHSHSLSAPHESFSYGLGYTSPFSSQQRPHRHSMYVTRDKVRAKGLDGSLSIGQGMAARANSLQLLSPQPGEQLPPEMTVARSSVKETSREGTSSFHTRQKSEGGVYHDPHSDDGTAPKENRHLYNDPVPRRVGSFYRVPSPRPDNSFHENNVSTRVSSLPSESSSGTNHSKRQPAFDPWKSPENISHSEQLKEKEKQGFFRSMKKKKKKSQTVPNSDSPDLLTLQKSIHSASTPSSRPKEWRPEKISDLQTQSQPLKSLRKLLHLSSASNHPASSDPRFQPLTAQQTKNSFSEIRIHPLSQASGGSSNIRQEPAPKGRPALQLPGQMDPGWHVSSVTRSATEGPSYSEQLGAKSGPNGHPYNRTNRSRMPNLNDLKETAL", "assay": "Selectivity interaction (KinomeScan (DiscoverX)) EUB0000607a CDKL5", "details": "at 10 µM"}, "[4]": {"biological_target": "Ribosomal protein S6 kinase beta-1 (Homo sapiens, UniProt P23443)", "sequence (P23443 whole entry, looked up)": "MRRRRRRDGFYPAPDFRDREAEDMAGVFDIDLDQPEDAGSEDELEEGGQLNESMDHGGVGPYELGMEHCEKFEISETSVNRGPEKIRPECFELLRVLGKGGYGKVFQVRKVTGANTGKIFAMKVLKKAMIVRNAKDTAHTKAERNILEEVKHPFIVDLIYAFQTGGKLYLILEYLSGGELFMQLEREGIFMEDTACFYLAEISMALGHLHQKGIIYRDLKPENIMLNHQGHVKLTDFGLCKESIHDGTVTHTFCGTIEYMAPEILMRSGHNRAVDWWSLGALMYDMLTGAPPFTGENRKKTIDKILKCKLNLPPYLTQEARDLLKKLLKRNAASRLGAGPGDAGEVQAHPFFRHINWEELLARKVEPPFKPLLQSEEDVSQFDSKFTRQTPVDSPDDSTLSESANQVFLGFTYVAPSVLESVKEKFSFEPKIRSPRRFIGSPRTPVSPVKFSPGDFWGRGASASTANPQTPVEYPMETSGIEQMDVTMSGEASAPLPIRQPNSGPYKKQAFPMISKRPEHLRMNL", "assay": "Selectivity interaction (ActivX KiNativ screen (kinase selectivity in THP-1 cell lysates)) EUB0000639a RPS6KB1", "type": "subcellular", "details": "lysate, at 0.04 µM"}, "[5]": {"biological_target": "BDNF/NT-3 growth factors receptor (Homo sapiens) (UniProt Q16620)", "sequence (Q16620 32-822 limits assumed)": "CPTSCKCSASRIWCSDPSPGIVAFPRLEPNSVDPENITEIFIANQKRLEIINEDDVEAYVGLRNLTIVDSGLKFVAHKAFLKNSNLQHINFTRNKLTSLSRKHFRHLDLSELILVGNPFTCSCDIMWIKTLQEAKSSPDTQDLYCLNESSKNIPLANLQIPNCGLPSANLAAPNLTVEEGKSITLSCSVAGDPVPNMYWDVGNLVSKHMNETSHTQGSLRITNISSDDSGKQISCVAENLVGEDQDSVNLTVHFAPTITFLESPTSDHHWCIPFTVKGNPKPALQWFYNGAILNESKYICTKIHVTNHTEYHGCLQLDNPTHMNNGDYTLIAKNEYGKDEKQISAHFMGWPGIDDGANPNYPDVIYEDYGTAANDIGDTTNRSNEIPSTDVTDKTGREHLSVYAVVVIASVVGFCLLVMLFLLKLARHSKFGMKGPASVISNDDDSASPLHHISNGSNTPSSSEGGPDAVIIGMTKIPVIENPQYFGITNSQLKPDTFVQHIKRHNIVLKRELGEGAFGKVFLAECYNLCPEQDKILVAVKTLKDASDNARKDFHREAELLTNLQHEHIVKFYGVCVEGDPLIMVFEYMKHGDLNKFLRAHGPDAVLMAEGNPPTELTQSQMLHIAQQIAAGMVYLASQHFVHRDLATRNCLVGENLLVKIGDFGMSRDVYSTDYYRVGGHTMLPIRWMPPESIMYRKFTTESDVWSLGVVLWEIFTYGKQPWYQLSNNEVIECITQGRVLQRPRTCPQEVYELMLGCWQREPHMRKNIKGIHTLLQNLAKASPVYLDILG", "assay": "Selectivity interaction (Kinase panel (Invitrogen)) EUB0000639a NTRK2", "details": "at 200 nM"}, "[6]": {"biological_target": "Ephrin type-A receptor 7 (Homo sapiens) (UniProt Q15375)", "sequence (Q15375 28-998 limits assumed)": "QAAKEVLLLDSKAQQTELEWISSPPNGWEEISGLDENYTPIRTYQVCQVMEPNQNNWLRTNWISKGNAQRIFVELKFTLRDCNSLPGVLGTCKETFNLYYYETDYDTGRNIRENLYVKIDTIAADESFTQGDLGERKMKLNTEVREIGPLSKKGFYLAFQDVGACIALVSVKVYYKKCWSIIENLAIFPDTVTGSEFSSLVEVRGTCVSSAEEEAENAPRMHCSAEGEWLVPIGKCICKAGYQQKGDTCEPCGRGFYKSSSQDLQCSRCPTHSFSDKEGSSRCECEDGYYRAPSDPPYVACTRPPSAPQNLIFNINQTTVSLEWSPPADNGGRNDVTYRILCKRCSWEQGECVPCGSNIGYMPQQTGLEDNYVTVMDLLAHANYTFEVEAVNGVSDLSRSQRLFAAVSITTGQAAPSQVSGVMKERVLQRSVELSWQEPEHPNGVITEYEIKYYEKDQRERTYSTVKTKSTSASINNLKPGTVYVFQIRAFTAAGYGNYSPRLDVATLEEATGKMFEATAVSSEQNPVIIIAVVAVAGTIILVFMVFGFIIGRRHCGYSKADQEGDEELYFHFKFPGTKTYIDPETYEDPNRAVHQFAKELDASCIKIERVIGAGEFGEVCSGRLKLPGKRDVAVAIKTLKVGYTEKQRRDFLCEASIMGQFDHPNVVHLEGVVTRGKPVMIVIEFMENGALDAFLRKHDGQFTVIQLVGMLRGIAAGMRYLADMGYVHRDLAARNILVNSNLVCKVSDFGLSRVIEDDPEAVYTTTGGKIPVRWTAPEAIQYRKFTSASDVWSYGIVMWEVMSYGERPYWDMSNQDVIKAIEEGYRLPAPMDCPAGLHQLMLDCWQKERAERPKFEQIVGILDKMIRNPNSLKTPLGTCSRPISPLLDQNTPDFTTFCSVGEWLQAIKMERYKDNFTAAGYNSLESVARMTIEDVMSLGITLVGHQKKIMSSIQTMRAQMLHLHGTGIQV", "assay": "Selectivity interaction (KinomeScan (DiscoverX)) EUB0000045b EPHA7"}, "[7]": {"biological_target": "T2, Phosphatidylinositol 5-phosphate 4-kinase type-2 beta (Homo sapiens) (UniProt P78356)", "T2 sequence (whole entry)": "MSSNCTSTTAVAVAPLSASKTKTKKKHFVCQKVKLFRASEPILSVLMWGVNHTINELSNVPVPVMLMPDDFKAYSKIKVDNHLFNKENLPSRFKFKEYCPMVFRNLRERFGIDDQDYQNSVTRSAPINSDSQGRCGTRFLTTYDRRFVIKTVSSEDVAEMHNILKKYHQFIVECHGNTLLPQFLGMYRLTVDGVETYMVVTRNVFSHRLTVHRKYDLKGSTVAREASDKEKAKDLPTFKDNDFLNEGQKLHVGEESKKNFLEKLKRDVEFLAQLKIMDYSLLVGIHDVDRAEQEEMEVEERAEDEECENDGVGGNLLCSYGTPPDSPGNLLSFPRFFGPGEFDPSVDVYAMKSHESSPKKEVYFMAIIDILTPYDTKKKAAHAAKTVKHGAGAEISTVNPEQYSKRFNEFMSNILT", "assay": "Selectivity interaction (KinomeScan (DiscoverX)) EUB0001079a PIP4K2B", "details": "at 1 µM"}, "[8]": {"biological_target": "T3, Phosphatidylinositol 4,5-bisphosphate 3-kinase catalytic subunit delta isoform (Homo sapiens) (UniProt O00329)", "T3 sequence (whole entry)": "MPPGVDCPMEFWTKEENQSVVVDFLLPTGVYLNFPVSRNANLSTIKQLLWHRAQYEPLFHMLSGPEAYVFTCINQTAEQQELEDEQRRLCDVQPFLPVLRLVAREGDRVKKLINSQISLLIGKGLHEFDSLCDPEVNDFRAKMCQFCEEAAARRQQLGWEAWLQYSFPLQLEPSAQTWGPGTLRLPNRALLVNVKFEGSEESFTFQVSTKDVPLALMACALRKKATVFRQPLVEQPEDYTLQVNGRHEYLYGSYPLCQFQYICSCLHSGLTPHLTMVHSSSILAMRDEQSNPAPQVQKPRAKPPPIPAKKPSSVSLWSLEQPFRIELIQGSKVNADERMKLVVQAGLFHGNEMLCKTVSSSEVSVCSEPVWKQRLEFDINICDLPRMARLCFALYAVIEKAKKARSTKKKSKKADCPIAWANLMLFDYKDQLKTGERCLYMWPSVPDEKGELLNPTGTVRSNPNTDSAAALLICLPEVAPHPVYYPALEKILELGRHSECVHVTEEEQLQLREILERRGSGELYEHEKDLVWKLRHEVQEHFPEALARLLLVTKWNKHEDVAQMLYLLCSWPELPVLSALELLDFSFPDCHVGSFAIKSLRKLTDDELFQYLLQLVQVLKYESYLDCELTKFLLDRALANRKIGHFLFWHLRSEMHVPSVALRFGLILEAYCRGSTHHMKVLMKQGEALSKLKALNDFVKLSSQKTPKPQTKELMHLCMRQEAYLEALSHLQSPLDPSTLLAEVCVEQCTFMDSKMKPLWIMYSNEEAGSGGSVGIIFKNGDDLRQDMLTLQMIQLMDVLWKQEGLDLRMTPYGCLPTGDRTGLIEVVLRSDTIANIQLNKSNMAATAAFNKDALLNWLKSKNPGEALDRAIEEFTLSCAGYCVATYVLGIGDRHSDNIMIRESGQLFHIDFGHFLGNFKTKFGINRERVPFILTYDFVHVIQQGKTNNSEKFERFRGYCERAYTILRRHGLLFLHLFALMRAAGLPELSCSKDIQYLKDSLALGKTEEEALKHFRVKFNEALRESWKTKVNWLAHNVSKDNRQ", "assay": "Selectivity interaction (KinomeScan (DiscoverX)) EUB0000229b PIK3CD", "details": "at 10 µM"}, "[9]": {"biological_target": "Serine/threonine-protein kinase pim-3 (Homo sapiens) (UniProt Q86V86)", "assay": "Selectivity interaction (KinomeScan (DiscoverX)) EUB0000092b PIM3", "details": "at 10 µM"}}, "data": [{"compound": "Cn1cc(-n2cnc3c(NCc4nc5cc(Cl)c(Cl)cc5[nH]4)nc(N4CCOCC4)nc32)cn1", "values": [{"measurement": "% of inhibition", "setting": "[1]", "result": 4.17, "unit": "%"}]}, {"compound": "CNC(=O)Nc1ccc(-c2nc(N3CC4CCC(C3)O4)c3cnn(C4CCC5(CC4)OCCO5)c3n2)cc1", "values": [{"measurement": "% of control", "setting": "[2]", "result": 94, "unit": "%"}, {"measurement": "% of control", "setting": "[3]", "result": 79, "unit": "%"}]}, {"compound": "CC[C@@H]1[C@H](F)C(=O)N[C@@H]1COc1nccc2cc(C(N)=O)c(OC)cc12", "note": "[ZIMLOVISERTIB]", "values": [{"measurement": "% of inhibition", "setting": "[4]", "result": 9.9, "unit": "%"}, {"measurement": "% of inhibition", "setting": "[5]", "result": 15.8, "unit": "%"}]}, {"compound": "C=CC(=O)Nc1cc(-n2c(=O)ccc3cnc4ccc(-c5ccc(NS(C)(=O)=O)cc5)cc4c32)ccc1C", "values": [{"measurement": "% of control", "setting": "[6]; at 1 µM", "result": 100, "unit": "%"}, {"measurement": "% of control", "setting": "[6]; at 10 µM", "result": 85, "unit": "%"}]}, {"compound": "Nc1cnc(N2CCc3cc(S(=O)(=O)Nc4c(F)cc(Cl)cc4F)cc(N4CCCC4=O)c32)nc1", "note": "[TP-020n]", "values": [{"measurement": "% of control", "setting": "[7]", "result": 100, "unit": "%"}]}, {"compound": "COc1cc(N(C)c2ccnc3ccc(C(F)(F)F)cc23)cc(OC)c1OC", "values": [{"measurement": "% binding", "setting": "[8]", "result": 86, "unit": "%"}]}, {"compound": "CCC(=O)N1CCN(c2ccc(-n3c(=O)ccc4cnc5ccc(-c6cnc7ccccc7c6)cc5c43)cc2C(F)(F)F)CC1", "values": [{"measurement": "% of control", "setting": "[9]", "result": 96, "unit": "%"}]}]}
